{
  "source": "patent US10759777B2",
  "about": "“Carbazole-containing amides, carbamates, and ureas as cryptochrome modulators” (Synchronicity Pharma, Inc., priority 2014, dated 2020)",
  "key": {"[1]": {"system": "rat model of cortisone-induced insulin resistance", "assay": "Cortisone induced insulin resistance in rats", "format": "in vivo", "conditions": "50 mg/kg po with cortisone 30 mg/kg sc", "method": "Animals were dosed with cortisone (30 mg/kg sc qd) in combination with test compounds for 6 days and then terminated 27 hours after the final dose of cortisone. A reference standard (Mifepristone) was also included. Cortisone 21-acetate (Sigma C-3130) was supplied by RenaSci and administered using a dose volume of 5 ml/kg via the subcutaneous route as a fine suspension in 1% methylcellulose. […] Mifepristone (Sigma M8046) was provided by RenaSci.\nGlucose and insulin determinations were performed on plasma samples obtained from a tail vein bleed taken after a 12 h fast, approximately 27 h after the last cortisone dose. Animals were then terminated and a terminal (cardiac) blood sample taken from which plasma was prepared.\nThirty four male Sprague Dawley rats (weight range 200-250 g) were ordered from Charles River, Margate, Kent, UK. […] Subsequently, animals underwent a 3 day baseline period during which they were dosed once daily with vehicle at t=0 h (07:00). […] Body weight was recorded immediately before dosing began at 07:00 (t=0 h).\nOn Day 6 of dosing rats were fasted for 12 h beginning at 22:30 (timed to coincide with the Day 7 termination). […] At 10:30 on Day 7, 27 h after the final dose of cortisone, a blood sample (300 μl) was taken from the lateral tail vein into tubes containing EDTA (Sarstedt 16.444). The blood was centrifuged and resultant plasma aliquot stored at −75° C. The animals were euthanized by CO2 asphyxiation followed by cervical dislocation. Terminal blood (approximately 10 ml) was collected by cardiac puncture into tubes containing EDTA (Sarstedt 5 ml 32.332) and then centrifuged and plasma stored at −75° C. The tail vein plasma was analyzed for glucose (n=2) using a commercial clinical reagent (Thermoelectron Infinity glucose reagent (TR15421) and for insulin (n=1) using the Mercodia ultrasensitive rat insulin rat ELISA (10-1251-10).\nPlasma glucose and insulin were analyzed by robust regression or general linear model with treatment as a factor and bleeding order and baseline body weight as covariates. A log transformation was used if appropriate. Appropriate multiple comparison tests (two-tailed) were used to determine significant differences from the vehicle group and from the Cortisone group. P<0.05 was considered to be statistically significant."}, "[2]": {"biological_target": "isolated FAD-binding domain of human CRY1 protein (hCRY1) (Homo sapiens (Human), UniProt Q16526)", "sequence (Q16526 1-494)": "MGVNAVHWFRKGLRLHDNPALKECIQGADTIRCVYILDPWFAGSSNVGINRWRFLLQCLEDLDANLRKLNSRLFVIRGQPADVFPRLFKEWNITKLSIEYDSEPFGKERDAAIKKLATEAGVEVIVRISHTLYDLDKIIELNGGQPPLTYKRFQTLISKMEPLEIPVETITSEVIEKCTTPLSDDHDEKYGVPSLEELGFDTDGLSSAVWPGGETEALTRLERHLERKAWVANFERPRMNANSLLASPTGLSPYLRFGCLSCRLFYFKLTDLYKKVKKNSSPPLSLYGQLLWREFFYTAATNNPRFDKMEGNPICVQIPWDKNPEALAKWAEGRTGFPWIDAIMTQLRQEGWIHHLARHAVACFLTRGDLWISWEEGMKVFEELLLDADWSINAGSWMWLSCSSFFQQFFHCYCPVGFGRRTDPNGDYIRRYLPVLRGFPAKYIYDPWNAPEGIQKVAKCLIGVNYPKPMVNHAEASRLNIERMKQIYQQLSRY", "assay": "Thermal shift binding assay (differential scanning fluorimetry)", "method": "Binding of compounds to the isolated FAD-binding domain of human CRY1 protein (hCRY1) was determined using a differential scanning fluorimetry (‘thermal shift’) assay (Pantoliano et al. (2001) J Biomol Screening 6, 429; Niesen et al. (2007) Nature Protocols 2, 2212). The FAD-binding domain of hCRY1 (amino acid residues 1-494) with a C-terminal Myc-DDK tag (FADBD), was produced by transient transfection of HEK293T cells (Catalog # CRL-3216, American Type Culture Collection) and purified by anti-FLAG affinity chromatography (Catalog # A2220, Sigma-Aldrich). FADBD (0.5 μg per well) was incubated with dilutions of compounds in DMSO (5% DMSO final concentration in reaction) in 17.5 μl Tris-buffered saline (TBS) for 10 minutes on ice, then 2.5 μl of 8× Sypro-Orange Dye (Life Technologies) was added to each well. Triplicate wells were assayed for each compound concentration. The melting temperatures were measured in an ABI7500 quantitative PCR instrument using the melt curve mode with a thermal profile of 2 minutes at 25° C., followed by a ramp rate of 1° C./minute up to 99° C. The melting temperature for each well was determined from the first derivative of the melt curve. The change in melting temperature (ΔTm) was obtained by subtraction of the melting temperature of the FADBD in 5% DMSO alone."}, "[3]": {"assay": "Pharmacokinetic analysis in ICR mice", "format": "in vivo", "conditions": "mouse, 50 mg/kg P.O.", "method": "Male ICR mice (weighing 30-40 g, Charles River Laboratories) were used for the experiment with n=3 mice for each experimental group (27 mice total for the study). […] Blood and liver tissue were collected at the following time points after administration: 15, 30, 60, 90 minutes, 3, 6, 12 and 24 hours. A control group of animals (TO) was also sampled. Animals were euthanized with C02 and the blood collected from the heart using cardiac puncture, transferred to an EDTA tube, and then centrifuged at 5400 rpm for 5 minutes at 4° C. The resultant plasma was frozen using dry ice and then stored at −80° C. until ready for assay. Liver tissue was removed from each animal, 0.5 g was collected in an eppendorff, frozen and submitted for pharmacokinetic measurement. […] Raw data was analyzed using WinNonLin for PK parameters (Cmax, Tmax, elimination t^1/2, MRT (mean residence time), AUC (area under the curve)−(0-last and % extrapolated)."}},
  "data": [
    {"compound": "O=C1NCCN1CC(O)Cn1c2ccc(F)cc2c2cc(F)ccc21", "note": "(centres unmarked) [Compound 72, 1-(3-(3,6-difluoro-9H-carbazol-9-yl)-2-hydroxypropyl)imidazolidin-2-one]", "values": [
      {"measurement": "fasted plasma insulin", "setting": "[1]", "result": "5.24 ± 1.11", "unit": "ng/mL"},
      {"measurement": "change in melting temperature (ΔTm) of hCRY1 FADBD", "setting": "[2]", "result": "dose-dependent increase"},
      {"measurement": "% AUC extrapolated", "setting": "[3]; liver", "result": 0.85, "unit": "%"},
      {"measurement": "Tmax (hr)", "setting": "[3]; liver", "result": "0.25 − hr"},
      {"measurement": "Tmax (hr)", "setting": "[3]; plasma", "result": "0.25 − hr"}
    ]}
  ]
}
